Results on 20 molecules are retold here after patent publication US20100009970A1, “COMPOSITIONS AND METHODS FOR TREATMENT OF VIRAL DISEASES” (Combinatorx (Singapore) Pte. Ltd., priority 2008, published 2010).

Structures can show the parent of a compound that is named as a salt. Where two headings read alike, the source gives them in different places.

Data set [1] has as its system Huh7 cells expressing a subgenomic RNA replicon of Con1 (genotype 1b) sequence origin.
The nature of another data set: in vitro. The following applies: human.
Data set [2] relates to Huh7 cells expressing a subgenomic RNA replicon of Con1 (genotype 1b) sequence origin. Nature of the data set: microbe, parasite or virus in culture. The following applies: Hepatitis C virus.
Setting [3] is: GETYPE1B, Huh-7, 72 h, read-out: Max Effect @CC30 (inhibition).
Where [4] appears, read: Huh-7, 48 h, read-out: Max Effect.
The mark [5] stands for this setting: Huh-7, read-out: IC50 (uM) [SG].
[6] abbreviates: Huh-7, read-out: Max Effect@CC30 (inhibition).

As usually defined, the IC50 is the midpoint of a concentration-inhibition curve. Consider `CN[C@H]1CC[C@@H](c2ccc(Cl)c(Cl)c2)c2ccc(C(=O)OC)cc21` [Sertraline A-ring Methyl Ester, (5S,8S)-methyl 5-(3,4-dichlorophenyl)-8-(methylamino)-5,6,7,8-tetrahydronaphthalene-2-carboxylate], for which the “Synergy Score” value in data set [1] came to 0.51. Also, in data set [1], the “TI (CC50/IC50)” value is reported as 1.248. Besides, the CC50 in the data set “in vitro” (CC50) worked out at 8.01 µM; in “in vitro” (CC50 (uM)), 13.7 µM; in the data set “in vitro” (CC50 (uM) [SG]), 13.7 µM. For the same molecule, the Emax in data set [2] (setting [3]) worked out at 78%; in data set [2] (setting [4]), 99%; in data set [2] (setting [6]), 78%. For the same molecule, the IC50 in data set [2] (Huh-7, 48 h) turned out to be 6.42 µM; in data set [2] (Huh-7, 72 h) it was 9.13 µM; in data set [2] (setting [5]), 9.13 µM.

For orientation: IC90 means the concentration needed for an effect of 90%. In the case of `CN(C)[C@H]1CC[C@@H](c2ccc(Cl)c(Cl)c2)c2ccccc21` [N,N-Dimethyl Sertraline, (1S,4S)-4-(3,4-dichlorophenyl)-N,N-dimethyl-1,2,3,4-tetrahydronaphthalen-1-amine], in data set [1], the “Synergy Score” value is 0.89. Also, the “TI (CC50/IC50)” value in data set [1] is on record as greater than 1.727. The CC50 is greater than 13.4 µM in “in vitro” (CC50), 72.2 µM in the data set “in vitro” (CC50 (uM)) and 64.7 ± 10.6 µM in the data set “in vitro” (CC50 (uM) [SG]). In addition, the Emax came out at 99% in data set [2] (setting [3]), 70% in data set [2] (setting [4]) and 99% in data set [2] (setting [6]). Further, the 90% effect concentration (IC90) in data set [2] (Huh-7) worked out at 18.1 ± 2.77 µM; in data set [2] (Huh-7, 72 h) it was 17.1 ± 2.93 µM. Further, the IC50 worked out at 7.77 µM in data set [2] (Huh-7, 48 h); 5.22 ± 2.2 µM in data set [2] (Huh-7, 72 h); 6.07 ± 2.2 µM in data set [2] (setting [5]).

For the molecule `CN[C@H]1CC[C@@H](c2ccc(Cl)c(Cl)c2)c2ccc(S(=O)(=O)NC)cc21` [Sertraline Sulfonamide, (5S,8S)-5-(3,4-dichlorophenyl)-N-methyl-8-(methylamino)-5,6,7,8-tetrahydronaphthalene-2-sulfonamide], the “Synergy Score” value in data set [1] is 0.43. The “TI (CC50/IC50)” value in data set [1] was determined as 1.605. The results for the CC50 in “in vitro” (CC50), in “in vitro” (CC50 (uM)) and in “in vitro” (CC50 (uM) [SG]) were 11.6 µM, 13.04 ± 0.1 µM and 13.04 ± 0.1 µM, respectively. Moreover, the Emax in data set [2] (setting [3]) was determined as 40.5 ± 5%; in data set [2] (setting [4]), 94%; in data set [2] (setting [6]) it was 40.5 ± 5%. Also, the IC50 in data set [2] (Huh-7, 48 h) stood at 7.26 µM; in data set [2] (Huh-7, 72 h), 6.87 ± 0.2 µM; in data set [2] (setting [5]) it was 6.87 ± 0.2 µM.

Regarding `CNC1CCC(c2ccc(Oc3ccccc3)cc2)c2ccccc21` (centres unmarked) [Sertraline B-ring para-Phenoxy, N-methyl-4-(4-phenoxyphenyl)-1,2,3,4-tetrahydronaphthalen-1-amine], the “Synergy Score” value in data set [1] was 0.38. In addition, the “TI (CC50/IC50)” value in data set [1] is 1.987. Besides, the CC50 in the data set “in vitro” (CC50) is 7.46 µM; in the data set “in vitro” (CC50 (uM)) it was 6.8 µM; in the data set “in vitro” (CC50 (uM) [SG]), 7.85 ± 1.48 µM. Moreover, the Emax worked out at 65% in data set [2] (setting [3]), 99% in data set [2] (setting [4]) and 81 ± 22.6% in data set [2] (setting [6]). Further, the half-inhibitory concentration (IC50) came to 3.75 µM in data set [2] (Huh-7, 48 h); 5.15 µM in data set [2] (Huh-7, 72 h); 4.02 ± 1.6 µM in data set [2] (setting [5]).

For the molecule `CN[C@H]1CC[C@@H](c2ccc(Cl)c(Cl)c2)c2ccc(CNS(C)(=O)=O)cc21` [N-(((5S,8S)-5-(3,4-dichlorophenyl)-8-(methylamino)-5,6,7,8-tetrahydronaphthalen-2-yl)methyl)methanesulfonamide], in data set [1], the “Synergy Score” value was 0.55. Besides, the “TI (CC50/IC50)” value in data set [1] is 1.761. The CC50 turned out to be 10.5 µM in “in vitro” (CC50), 11.2 ± 0.3 µM in “in vitro” (CC50 (uM)) and 11.2 ± 0.3 µM in the data set “in vitro” (CC50 (uM) [SG]). The Emax in data set [2] (setting [3]) is 59.7 ± 3.5%; in data set [2] (setting [4]) it was 100%; in data set [2] (setting [6]), 59.7 ± 3.5%. For the same molecule, the IC50 in data set [2] (Huh-7, 48 h) was 5.97 µM; in data set [2] (Huh-7, 72 h), 3.28 ± 1.5 µM; in data set [2] (setting [5]), 3.28 ± 1.5 µM.

In the case of `COC1CC[C@@H](c2ccc(Cl)c(Cl)c2)c2ccccc21` (single isomer, unassigned) [Methoxy 4S-Sertraline-P1], the “Max Effect@CC30 (inhibition)” value in data set [1] worked out at 93.98%. This molecule also gave a CC50 in “in vitro” (CC50 (uM) [SG]) greater than 50 µM. This molecule displayed an IC90 in data set [2] (Huh-7) of 46.1 µM. The IC50 in data set [2] (setting [5]) stood at 22.7 µM.

For the molecule `CN[C@H]1CC[C@@H](c2ccc(Cl)c(Cl)c2)c2ccc(S(N)(=O)=O)cc21` [Sertraline Sulfonamide NH2, (5S,8S)-5-(3,4-dichlorophenyl)-8-(methylamino)-5,6,7,8-tetrahydronaphthalene-2-sulfonamide], the “Synergy Score” value in data set [1] turned out to be 0.49. In addition, the “TI (CC50/IC50)” value in data set [1] is reported as greater than 2.226. Further, the CC50 in “in vitro” (CC50) was greater than 13.4 µM; in the data set “in vitro” (CC50 (uM)) it was 9.99 ± 4.4 µM; in “in vitro” (CC50 (uM) [SG]) it was 9.99 ± 4.4 µM. For the same molecule, the values for the Emax in data set [2] (setting [3]), in data set [2] (setting [4]) and in data set [2] (setting [6]) were 63.5 ± 6.4%, 91% and 63.5 ± 6.4%, respectively. The IC50 in data set [2] (Huh-7, 48 h) amounted to 6.02 µM; in data set [2] (Huh-7, 72 h), 3.65 ± 2.3 µM; in data set [2] (setting [5]) it was 3.65 ± 2.3 µM.

Turning to `CN[C@H]1CC[C@@H](c2ccc(Cl)c(Cl)c2)c2ccc(S(=O)(=O)N(C)C)cc21` [Sertraline N,N-dimethylsulfonamide, (5S,8S)-5-(3,4-dichlorophenyl)-N,N-dimethyl-8-(methylamino)-5,6,7,8-tetrahydronaphthalene-2-sulfonamide], in data set [1], the “Synergy Score” value is listed as 0.53. Also, the “TI (CC50/IC50)” value in data set [1] was 1.076. Further, the CC50 in “in vitro” (CC50) is 7.85 µM; in “in vitro” (CC50 (uM)) it was 8.87 µM; in the data set “in vitro” (CC50 (uM) [SG]), 8.87 µM. The values for the Emax in data set [2] (setting [3]), in data set [2] (setting [4]) and in data set [2] (setting [6]) were 38%, 91% and 38%, respectively. Further, the concentration for half-maximal inhibition (IC50) in data set [2] (Huh-7, 48 h) was 7.3 µM; in data set [2] (Huh-7, 72 h), 6.69 µM; in data set [2] (setting [5]) it was 6.69 µM.

Consider `CN(C)[C@H]1CC[C@@H](c2ccc(Cl)c(Cl)c2)c2ccc(NS(C)(=O)=O)cc21` [Dimethyl Sertraline Reverse Sulfonamide, N-((5S,8S)-5-(3,4-dichlorophenyl)-8-(dimethylamino)-5,6,7,8-tetrahydronaphthalen-2-yl)methanesulfonamide], for which the “Synergy Score” value in data set [1] stood at 1.22. The CC50 in the data set “in vitro” (CC50) is greater than 13.4 µM; in “in vitro” (CC50 (uM)), 16.5 µM; in the data set “in vitro” (CC50 (uM) [SG]), 16.5 µM. Moreover, the Emax in data set [2] (setting [3]) came to 70%; in data set [2] (setting [4]), 44%; in data set [2] (setting [6]), 70%. Further, the IC50 in data set [2] (Huh-7, 72 h) is 3.45 µM; in data set [2] (setting [5]), 3.45 µM.

As for `CN[C@H]1CC[C@@H](c2ccc(Cl)c(Cl)c2)c2ccccc21` [Sertraline (e.g., hydrochloride), Sertraline, reference compound], the “Synergy Score” value in data set [1] was 2.76. For the same molecule, the CC50 at 48 h in the data set “in vitro” (CC50) turned out to be 8.83 µM. Further, the Emax in data set [2] (setting [4]) stood at 99%.

For `CN[C@H]1CC[C@@H](c2ccc(Cl)c(Cl)c2)c2ccc(C#N)cc21` [Sertraline Nitrile, (5S,8S)-5-(3,4-dichlorophenyl)-8-(methylamino)-5,6,7,8-tetrahydronaphthalene-2-carbonitrile], in data set [1], the “Synergy Score” value was found to be 0.52. Besides, the “TI (CC50/IC50)” value in data set [1] was greater than 1.796. The CC50 was greater than 13.4 µM in “in vitro” (CC50), 14.8 µM in “in vitro” (CC50 (uM)) and 14.8 µM in the data set “in vitro” (CC50 (uM) [SG]). The Emax turned out to be 87% in data set [2] (setting [3]), 89% in data set [2] (setting [4]) and 87% in data set [2] (setting [6]). Also, the IC50 in data set [2] (Huh-7, 48 h) amounted to 7.46 µM; in data set [2] (Huh-7, 72 h) it was 4.81 µM; in data set [2] (setting [5]), 4.81 µM.

Consider `N[C@@H]1CC[C@H](c2ccc(Cl)c(Cl)c2)c2ccccc21` [(1R,4R)-Desmethyl Sertraline, (1R,4R)-4-(3,4-dichlorophenyl)-1,2,3,4-tetrahydronaphthalen-1-amine], for which the “Synergy Score” value in data set [1] is on record as 0.57. The “TI (CC50/IC50)” value in data set [1] is on record as greater than 1.206. Besides, the CC50 was greater than 8.83 µM in “in vitro” (CC50), 8.1 µM in “in vitro” (CC50 (uM)) and 8.1 µM in the data set “in vitro” (CC50 (uM) [SG]). The Emax in data set [2] (setting [3]) came out at 0%; in data set [2] (setting [4]), 81%; in data set [2] (setting [6]), 0%. Also, the IC50 in data set [2] (Huh-7, 48 h) amounted to 7.32 µM; in data set [2] (Huh-7, 72 h), 8.7 µM; in data set [2] (setting [5]), 8.7 µM.

In data set [1], `COc1ccc(CCN(C)CCC[C@](C#N)(c2ccc(OC)c(OC)c2)C(C)C)cc1OC` [R(+)-Verapamil (e.g., hydrochloride), R(+)-Verapamil, reference compound] showed an IC50 of 15.7 µM.

With `CCCCC1C(=O)N(c2ccccc2)N(c2ccc(O)cc2)C1=O` (centres unmarked) [Oxyphenbutazone (e.g., hydrate), oxyphenbutazone, reference compound], the concentration for half-maximal inhibition (IC50) in data set [1] came to 4.17 µM.

`N#CC(C#N)=Cc1ccc(O)c(O)c1` [Tyrphostin 23, tyrphostin 23, reference compound]: in data set [1], the IC50 amounted to 14.6 µM.

The molecule “N-Tosyl-L-phenylalanine chloromethyl ketone [reference compound]” gave an IC50 in data set [1] of 16.7 µM.

Regarding `Cc1ccc(S(=O)(=O)/C=C/C#N)cc1` [Bay 11-7082, reference compound], the IC50 in data set [1] is 15 µM.

`N#C/C(=C\c1ccc(O)c(O)c1)C(N)=O` [Tyrphostin 46, tyrphostin A46, reference compound] yielded an IC50 in data set [1] of 21.2 µM.

As for `C/C1=C2/[N-][C@H]([C@H](CC(N)=O)[C@@]2(C)CCC(=O)NC[C@@H](C)OP(=O)([O-])O[C@H]2[C@@H](O)[C@@H](n3cnc4cc(C)c(C)cc43)O[C@@H]2CO)[C@]2(C)N=C(/C(C)=C3N=C(/C=C4N=C1[C@@H](CCC(N)=O)C\4(C)C)[C@@H](CCC(N)=O)[C@]\3(C)CC(N)=O)[C@@H](CCC(N)=O)[C@]2(C)CC(N)=O.[Co+3].[OH-]` [Hydroxocobalamin, hydroxocobalamin, reference compound], the IC50 in data set [1] stood at 1.33 µM.

For the molecule `Nc1nc(-c2nn(Cc3ccccc3F)c3ncccc23)ncc1C1CC1` [Bay 41-2272, reference compound], the IC50 in data set [1] was 0.754 µM.
